Reference: patent publication US9073955B2, “2-amino-4-arylthiazole compounds as TRPA1 antagonists” (Glenmark Pharmaceuticals, S.A., priority 2010, dated 2015)
Like-named read-outs stand apart in the source and are kept apart here.

Columns and labels:
[1] = Determination of solubility by shake flask method (water); assay type: physicochemical; settings: for aqueous solubility over the parent thiazole acetamide: compared with the corresponding parent compound of formula (1); for solubility at 15 min: thermodynamic from solid, ‘P’ substituted thiazole compound, water, 37° C., shake flask
Method: About 1 mg of test substance was taken in test tube and water was added in the increment of 1 ml with shaking after addition of media (water). Solubility was observed visually also. After completion of addition of 10 ml volume of media (water), test tube containing sample solution were put on a mechanical shaker set at 37° C. and 200 rpm for shaking up to 15 minute. After shaking, content of flask was filtered through 0.45μ filter. This filtered solution is analyzed using HPLC method for quantification. A sample solution of 1 mg in 10 ml of DMSO is used as reference standard for quantifying dissolved test substance in media. Solubility is expressed as mcg/ml.
Aqueous solubility of ‘P’ substituted thiazole compounds and the parent thiazole compounds were determined using the above described procedure and the results are given Table 3.

[2] = molecular target: T1, Human TRPA1 (Homo sapiens, UniProt O75762); assay: 45Calcium uptake assay: inhibition of AITC induced cellular uptake of radioactive calcium; assay type: cell-based; settings: human TRPA1 expressing CHO cells, AITC 30 μM; for inhibition at 1 µM: read-out: Percentage inhibition at 1.0 μM; for inhibition at 10 µM: read-out: Percentage inhibition at 10.0 μM
T1 construct: expressed in transfected cells; host or cells: CHO cells (grown with 400 μg/ml G-418)
Method: The illustrative examples of the present invention were screened for TRPA1 activity according to a modified procedure described in (a) Tóth, A. et al. Life Sciences, 2003, 73, 487-498. ([…]. et al, Proc. Natl. Acad. Sci. U.S.A., 2007, 104, 13525-13530. The screening of the compounds can be carried out by other methods and procedures known to persons skilled in the art. Screening for TRPA1 Antagonist Using the ^45Calcium Uptake Assay: The inhibition of TRPA1 receptor activation was measured as inhibition of allyl isothiocyanate (AITC) induced cellular uptake of radioactive calcium. Test compounds were dissolved in 100% DMSO to prepare 10 mM stock and then diluted using plain medium with 0.1% BSA and 1.8 mM CaCl2 to get the desired concentration. The final concentration of DMSO in the reaction was 0.5% (v/v). Human TRPA1 expressing CHO cells were grown in F-12 DMEM medium with 10% FBS, 1% penicillin-streptomycin solution, and 400 μg/ml of G-418. Cells were seeded 24 h prior to the assay in 96 well plates so as to get 50,000 cells per well on the day of experiment. Cells were treated with the test compounds for 10 minutes followed by the addition of AITC at a final concentration of 30 μM and 5 μCi/ml^45Ca^+2 for 3 minutes. Cells were washed and lysed using a buffer containing 1% Triton X-100, 0.1% deoxycholate and 0.1% SDS. Radioactivity in the lysate was measured in a Packard TopCount after addition of liquid scintillant. (Toth et al, Life Sciences (2003) 73, 487-498; McNamara C R et al, Proceedings of the National Academy of Sciences, (2007) 104, 13525-13530). Concentration response curves were plotted as a % of maximal response obtained in the absence of test antagonist. IC50 values can be calculated from concentration response curve by nonlinear regression analysis using GraphPad PRISM software.

[3] = Rat pharmacokinetic (PK) study, oral suspension; assay type: in vivo, male rats (Sprague Dawley); settings: for pharmacokinetic properties (Cmax and AUC) compared to the parent thiazole acetamide: compared with the corresponding parent compound of formula (1)
Method: PK values were obtained in male rats (strain: Sprague Dawley) orally dosed with the compounds of the present invention as suspension. Accurately weighed quantity of compound of present invention (corrected for purity and salt factor) was transferred into a clean and dry mortar. To this mortar was added 2.5 μL/mL Tween 80 and triturated until the compound gets properly wet. To this, 0.5% (w/v) methyl cellulose suspension was added in geometric proportions and triturated thoroughly to form a uniform suspension.
Animals were provided with food and water ad libitum through out the study period. Animals were dosed orally with the compounds using a gavage needle at 10 mL/kg body weight. Blood samples (250 μl approx.) were collected from male Sprague Dawley retro orbital sinus using rat capillary tubes into 0.6 mL eppendorf tubes with tripotassium ethylenediaminetetraacetic acid (K3 EDTA) (25 μL) as anticoagulant. Samples were collected at 0.5, 1.0, 2.0, 4.0, 6.0, 8.0, 12.0 and 24.0 hr post dosing for compounds. Then samples were centrifuged immediately at 1000 g for 10 min. at 4° C. Plasma samples were separated and stored at −70° C. till analysis. Samples were processed and analyzed using LCMS/MS. Pharmacokinetic parameters were calculated using Winonlin software. Table 4 provides the pK values (Cmax, AUC) obtained in these studies.

T1 sequence (O75762 whole entry): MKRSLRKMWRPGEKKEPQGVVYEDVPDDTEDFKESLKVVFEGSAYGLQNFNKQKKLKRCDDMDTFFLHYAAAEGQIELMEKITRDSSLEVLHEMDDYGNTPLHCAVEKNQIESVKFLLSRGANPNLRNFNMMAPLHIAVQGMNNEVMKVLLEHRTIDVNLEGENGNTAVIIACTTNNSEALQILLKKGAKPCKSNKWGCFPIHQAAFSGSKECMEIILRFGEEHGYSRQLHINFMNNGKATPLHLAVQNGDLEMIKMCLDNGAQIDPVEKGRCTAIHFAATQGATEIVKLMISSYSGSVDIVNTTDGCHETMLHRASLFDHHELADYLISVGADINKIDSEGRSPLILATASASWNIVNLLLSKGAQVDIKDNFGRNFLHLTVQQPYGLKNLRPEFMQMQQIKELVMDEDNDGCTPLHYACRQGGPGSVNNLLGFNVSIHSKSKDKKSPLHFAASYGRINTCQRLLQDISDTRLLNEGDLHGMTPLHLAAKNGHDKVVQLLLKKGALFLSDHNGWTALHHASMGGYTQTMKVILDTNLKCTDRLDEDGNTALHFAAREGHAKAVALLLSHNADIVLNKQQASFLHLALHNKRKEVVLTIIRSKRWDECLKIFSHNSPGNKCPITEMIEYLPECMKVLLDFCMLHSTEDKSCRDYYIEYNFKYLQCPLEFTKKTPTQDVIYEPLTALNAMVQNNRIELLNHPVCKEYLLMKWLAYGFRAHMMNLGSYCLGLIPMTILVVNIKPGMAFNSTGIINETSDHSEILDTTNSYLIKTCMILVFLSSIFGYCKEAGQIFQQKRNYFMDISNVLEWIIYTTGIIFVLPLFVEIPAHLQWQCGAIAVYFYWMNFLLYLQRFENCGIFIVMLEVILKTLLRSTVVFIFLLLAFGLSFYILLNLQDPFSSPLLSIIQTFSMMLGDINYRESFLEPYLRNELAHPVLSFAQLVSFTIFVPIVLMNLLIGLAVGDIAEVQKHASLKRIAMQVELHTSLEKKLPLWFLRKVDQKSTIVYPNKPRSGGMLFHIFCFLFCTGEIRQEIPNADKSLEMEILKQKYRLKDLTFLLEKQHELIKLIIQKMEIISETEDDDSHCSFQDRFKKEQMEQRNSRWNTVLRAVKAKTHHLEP

Row | inhibition at 1 µM ([2]; 1.0 μM) [%] | inhibition at 10 µM ([2]; 10.0 μM) [%] | IC50 [2] [nM] | pharmacokinetic properties (Cmax and AUC) compared to the parent thiazole acetamide [3] | solubility at 15 min [1] [µg/mL] | SMILES | further results
1 | 91.2 | 97.8 | 100 to 500 | better pharmacokinetic properties |  | Cc1oc2c(c1CC(=O)/N=c1\scc(-c3ccc(OC(F)(F)F)c(Cl)c3)n1COC(=O)C1CCNCC1)c(=O)n(C)c(=O)n2C.Cl [Example 23, [4-[3-Chloro-4-(trifluoromethoxy)phenyl]-2-{[(1,3,6-trimethyl-2,4-dioxo-1,2,3,4-tetrahydrofuro[2,3-d]pyrimidin-5-yl)acetyl]imino}-1,3-thiazol-3 (2H)-yl]methyl piperidine-4-carboxylate hydrochloride] | 
2 |  |  |  |  | > 75 | Cc1oc2c(c1CC(=O)/N=c1\scc(-c3ccc(OC(F)(F)F)c(Cl)c3)n1COP(=O)([O-])[O-])c(=O)n(C)c(=O)n2C.[Na+].[Na+] [Example 26, Disodium[4-[3-chloro-4-(trifluoromethoxy)phenyl]-2-{[(1,3,6-trimethyl-2,4-dioxo-1,2,3,4-tetrahydrofuro[2,3-d]pyrimidin-5-yl)acetyl]imino}-1,3-thiazol-3 (2H)-yl]methyl phosphate] | Percentage inhibition at 1.0 μM ([2]; 1.0 μM): 12.64%; Percentage inhibition at 10.0 μM ([2]; 10.0 μM): 96.25%
3 |  |  | > 500 |  | > 110 | Cn1nc2c(c1CC(=O)N=c1scc(-c3ccc(F)c(C(F)(F)F)c3F)n1COP(=O)([O-])[O-])c(=O)n(C)c(=O)n2C.[Na+].[Na+] [Example 29, Disodium-(4-(2,4-difluoro-3-(trifluoromethyl)phenyl)-2-((2-(2,5,7-trimethyl-4,6-dioxo-4,5,6,7-tetrahydro-2H-pyrazolo[3,4-d]pyrimidin-3-yl)acetyl)imino)thiazol-3 (2H)-yl)methyl phosphate] | 

The next lines start with the compound.

Row | SMILES | inhibition at 1 µM ([2]; 1.0 μM) [%] | inhibition at 10 µM ([2]; 10.0 μM) [%] | IC50 [2] [nM] | pharmacokinetic properties (Cmax and AUC) compared to the parent thiazole acetamide [3] | solubility at 15 min [1] [µg/mL] | further results
4 | Cl.Cn1c(=O)c2c(CC(=O)/N=c3\scc(-c4ccc(F)c(C(F)(F)F)c4F)n3COC(=O)CN)csc2n(C)c1=O [Example 3, [4-[2,4-Difluoro-3-(trifluoromethyl)phenyl]-2-{[(1,3-dimethyl-2,4-dioxo-1,2,3,4-tetrahydrothieno[2,3-d]pyrimidin-5-yl)acetyl]imino}-1,3-thiazol-3 (2H)-yl]methyl glycinate hydrochloride] | 100 | 99.9 | < 100 |  |  | aqueous solubility over the parent thiazole acetamide [1]: better aqueous solubility
5 | CC[C@H](C)[C@H](N)C(=O)OCn1c(-c2ccc(C(F)(F)F)c(F)c2)cs/c1=N\C(=O)Cc1csc2c1c(=O)n(C)c(=O)n2C.Cl [Example 6, [2-{[(1,3-Dimethyl-2,4-dioxo-1,2,3,4-tetrahydrothieno[2,3-d]pyrimidin-5-yl)acetyl]imino}-4-[3-fluoro-4-(trifluoromethyl)phenyl]-1,3-thiazol-3(2H)-yl]methyl L-isoleucinate hydrochloride] | 89.8 | 98.6 | 100 to 500 | better pharmacokinetic properties |  | 
6 | CC[C@H](C)[C@H](N)C(=O)OCn1c(-c2ccc(F)c(C(F)(F)F)c2F)cs/c1=N\C(=O)Cc1csc2c1c(=O)n(C)c(=O)n2C.Cl [Example 7, [4-[2,4-Difluoro-3-(trifluoromethyl)phenyl]-2-{[(1,3-dimethyl-2,4-dioxo-1,2,3,4-tetrahydrothieno[2,3-d]pyrimidin-5-yl)acetyl]imino}-1,3-thiazol-3 (2H)-yl]methyl L-isoleucinate hydrochloride] | 98.6 | 99.6 | < 100 | better pharmacokinetic properties |  | 
7 | Cl.Cn1c(=O)c2c(CC(=O)/N=c3\scc(-c4ccc(F)c(C(F)(F)F)c4F)n3COC(=O)C3CCNCC3)csc2n(C)c1=O [Example 10, [4-[2,4-Difluoro-3-(trifluoromethyl)phenyl]-2-{[(1,3-dimethyl-2,4-dioxo-1,2,3,4-tetrahydrothieno[2,3-d]pyrimidin-5-yl)acetyl]imino}-1,3-thiazol-3(2H)-yl]methyl piperidine-4-carboxylate hydrochloride] | 90.5 | 89.3 | 100 to 500 |  | > 29 | aqueous solubility over the parent thiazole acetamide [1]: better aqueous solubility
8 | Cn1c(=O)c2c(CC(=O)/N=c3\scc(-c4ccc(F)c(C(F)(F)F)c4F)n3COP(=O)(O)O)csc2n(C)c1=O [Example 13, [4-[2,4-Difluoro-3-(trifluoromethyl)phenyl]-2-{[(1,3-dimethyl-2,4-dioxo-1,2,3,4-tetrahydrothieno[2,3-d]pyrimidin-5-yl)acetyl]imino}-1,3-thiazol-3 (2H)-yl]methyl dihydrogen phosphate] |  |  | > 500 |  | > 2.5 | inhibition at 1 µM ([2]; CHO, 1.0 μM): 75.3%; inhibition at 10 µM ([2]; CHO, 10.0 μM): 99.3%
9 | Cn1c(=O)c2c(CC(=O)/N=c3\scc(-c4ccc(F)c(C(F)(F)F)c4F)n3COP(=O)([O-])[O-])csc2n(C)c1=O.[Na+].[Na+] [Example 14, Disodium[4-[2,4-difluoro-3-(trifluoromethyl)phenyl]-2-{[(1,3-dimethyl-2,4-dioxo-1,2,3,4-tetrahydrothieno[2,3-d]pyrimidin-5-yl)acetyl]imino}-1,3-thiazol-3(2H)-yl]methyl phosphate] |  |  | 100 to 500 |  | > 1200 | 
10 | Cc1oc2c(c1CC(=O)/N=c1\scc(-c3ccc(OC(F)(F)F)c(Cl)c3)n1COC(=O)CN)c(=O)n(C)c(=O)n2C.Cl [Example 20, [4-[3-Chloro-4-(trifluoromethoxy)phenyl]-2-{[(1,3,6-trimethyl-2,4-dioxo-1,2,3,4-tetrahydrofuro[2,3-d]pyrimidin-5-yl)acetyl]imino}-1,3-thiazol-3 (2H)-yl]methyl glycinate hydrochloride] | 96.7 | 96.2 | < 100 | better pharmacokinetic properties |  | 
11 | Cc1oc2c(c1CC(=O)/N=c1\scc(-c3ccc(OC(F)(F)F)c(Cl)c3)n1COC(=O)[C@@H](N)C(C)C)c(=O)n(C)c(=O)n2C.Cl [Example 21, [4-[3-Chloro-4-(trifluoromethoxy)phenyl]-2-{[(1,3,6-trimethyl-2,4-dioxo-1,2,3,4-tetrahydrofuro[2,3-d]pyrimidin-5-yl)acetyl]imino}-1,3-thiazol-3(2H)-yl]methyl L-valinate hydrochloride] |  |  | < 100 | better pharmacokinetic properties |  | inhibition at 1 µM ([2]; CHO, 1.0 μM): 93.8%; inhibition at 10 µM ([2]; CHO, 10.0 μM): 99.9%
12 | Cn1c(=O)c2c(CC(=O)Nc3nc(-c4ccc(C(F)(F)F)c(F)c4F)cs3)nsc2n(C)c1=O [parent of Example 31, N-{4-[2,3-difluoro-4-(trifluoromethyl)phenyl]-1,3-thiazol-2-yl}-2-(5,7-dimethyl-4,6-dioxo-4,5,6,7-tetrahydro[1,2]thiazolo[5,4-d]pyrimidin-3-yl)acetamide, reference compound] |  |  |  |  |  | Cmax ([3]; rat, plasma, parent thiazole compound of the example, male Sprague Dawley rats, oral suspension): < 250 ng/mL; AUC(0-t) ([3]; rat, plasma, parent thiazole compound of the example, male Sprague Dawley rats, oral suspension, read-out: AUC0-24): < 2500 ng·h/mL
